Where “and” joins values, the source holds several entries; their conditions need not be identical. Equal values may be shown once. Entries after “also recorded” stand apart in the source; their conditions may differ. Read-outs that look alike come from different tables or passages of the source.
What was measured:
[1] = test system: tubulin; type: biochemical, calf; conditions: in vitro; read-out: LC50 (inhibition of microtubule assembly in vitro)
[2] = test system: tumor cell lines; assay: cells; type: cell-based
[3] = test system: SF-295 CNS cancer cells; assay: cells; conditions: Homo sapiens
[4] = test system: MCF7/ADR-RES breast cancer cells; assay: cells; type: cell-based
[5] = test system: HOP-62 non-small cell lung cancer cells
[6] = test system: RXF-393 renal cancer cells; assay: cells; conditions: Homo sapiens; for GI50: RXF 393; for activity at 10 µM: RXF 393, read-out: Percent Growth, log10 conc -5.0; for activity at 1 µM: RXF 393, read-out: Percent Growth, log10 conc -6.0; for activity at 0.1 µM: RXF 393, read-out: Percent Growth, log10 conc -7.0; for activity at 0.01 µM: RXF 393, read-out: Percent Growth, log10 conc -8.0
[7] = test system: SF-268 CNS cancer cells
[8] = test system: SK-OV-3 ovarian cancer cells
[9] = test system: A498 renal cancer cells
[10] = test system: MOLT-4 leukemia cells
[11] = test system: OVCAR-8 ovarian cancer cells
[12] = test system: SF-295 CNS cancer cells
[13] = test system: SNB-19 CNS cancer cells
[14] = test system: SNB-75 CNS cancer cells
[15] = test system: U251 CNS cancer cells
[16] = test system: HS 578T breast cancer cells
[17] = test system: CAKI-1 renal cancer cells; assay: cells; conditions: Homo sapiens
[18] = test system: OVCAR-3 ovarian cancer cells; assay: cells; conditions: Homo sapiens
[19] = test system: OVCAR-3 ovarian cancer cells
[20] = test system: HS 578T breast cancer cells; assay: cells; conditions: Homo sapiens
[21] = test system: SK-OV-3 ovarian cancer cells; assay: cells; conditions: Homo sapiens
[22] = test system: HOP-62 non-small cell lung cancer cells; assay: cells; conditions: Homo sapiens
[23] = test system: RXF-393 renal cancer cells
[24] = test system: HOP-92 non-small cell lung cancer cells
[25] = test system: SF-539 CNS cancer cells
[26] = test system: A498 renal cancer cells; assay: cells; conditions: Homo sapiens
[27] = test system: HOP-92 non-small cell lung cancer cells; assay: cells; conditions: Homo sapiens

## COc1cc2c(c(OC)c1OC)-c1ccc(C(C)=O)cc1C(N)CC2 (centres unmarked) [7-Amino-allocolchinone]
[1]
  IC50: 3000 nM

## CCCC(=O)NC1CCc2cc(OC)c(OC)c(OC)c2-c2ccc(C(C)=O)cc21 (centres unmarked)
[2]
  GI50: < 10 nM
  activity in the NCI screen: activity similar to 7-acetamidoallocolchinone; also recorded: active
[3]; SF-295
  GI50: < 10 nM
[3]; SF-295, read-out: LC50
  CC50: > 100000 nM
[3]; SF-295, read-out: Percent Growth, log10 conc -4.0
  activity at 100 µM: 21%
[3]; SF-295, read-out: Percent Growth, log10 conc -5.0
  activity at 10 µM: 10%
[4]; Homo sapiens, MCF7
  GI50: < 10 nM
[4]; log10 conc -4.0, 100 µM
  Percent Growth: -22% and -23%
[5]
  TGI: > 100000 nM
[5]; log10 conc -4.0, 100 µM
  Percent Growth: 34%
[5]; log10 conc -5.0, 10 µM
  Percent Growth: 44%
[5]; log10 conc -6.0, 1 µM
  Percent Growth: 34%
[5]; log10 conc -7.0, 0.1 µM
  Percent Growth: 25% and 46%
[6]
  GI50: < 10 nM
  activity at 10 µM: 30%
  activity at 1 µM: 39%
  activity at 0.1 µM: 36%
  activity at 0.01 µM: 18%
[6]; RXF 393, read-out: LC50
  CC50: > 100000 nM
[7]
  GI50: < 10 nM
[7]; human, sf-268 cns cancer cells
  CC50: > 100000 nM
[7]; log10 conc -5.0, 10 µM
  Percent Growth: 14% and 25%
[7]; log10 conc -6.0, 1 µM
  Percent Growth: 18% and 30%
[7]; log10 conc -7.0, 0.1 µM
  Percent Growth: 29% and 31%
[7]; log10 conc -8.0, 0.01 µM
  Percent Growth: 43% and 32%
[8]; log10 conc -5.0
  Percent Growth: -19%
[8]; log10 conc -7.0, 0.1 µM
  Percent Growth: 3%
[9]
  GI50: < 10 nM
[9]; human, a498 renal cancer cells
  CC50: > 100000 nM
[9]; log10 conc -6.0, 1 µM
  Percent Growth: -40%
[9]; log10 conc -8.0
  Percent Growth: 13%
[10]
  GI50: < 10 nM
  TGI: > 100000 nM
[10]; human, molt-4 leukemia cells
  CC50: > 100000 nM
[10]; log10 conc -4.0, 100 µM
  Percent Growth: 2% and 6%
[10]; log10 conc -5.0
  Percent Growth: 9%
[10]; log10 conc -6.0, 1 µM
  Percent Growth: 12% and 8%
[10]; log10 conc -7.0, 0.1 µM
  Percent Growth: 12% and 8%
[10]; log10 conc -8.0, 0.01 µM
  Percent Growth: 16% and 9%
[11]
  GI50: < 10 nM
  TGI: > 10 nM
[11]; human, ovcar-8 ovarian cancer cells
  CC50: > 100000 nM
[12]
  TGI: > 100000 nM
[12]; log10 conc -4.0, 100 µM
  Percent Growth: 19%
[12]; log10 conc -5.0, 10 µM
  Percent Growth: 12%
[13]
  GI50: < 10 nM
[13]; human, snb-19 cns cancer cells
  CC50: > 100000 nM
[13]; log10 conc -4.0, 100 µM
  Percent Growth: 19%
[13]; log10 conc -6.0, 1 µM
  Percent Growth: 13% and 26%
[13]; log10 conc -8.0, 0.01 µM
  Percent Growth: 18% and 25%
[14]
  GI50: < 10 nM
[14]; human, snb-75 cns cancer cells
  CC50: > 100000 nM
[14]; log10 conc -4.0, 100 µM
  Percent Growth: 18%
[14]; log10 conc -8.0
  Percent Growth: -28%
[15]
  GI50: < 10 nM
[15]; human, u251 cns cancer cells
  CC50: > 100000 nM
[15]; log10 conc -5.0
  Percent Growth: 5%
[15]; log10 conc -6.0, 1 µM
  Percent Growth: 16% and 7%
[15]; log10 conc -7.0, 0.1 µM
  Percent Growth: -16%
[15]; log10 conc -8.0, 0.01 µM
  Percent Growth: 1% and 4%
[16]
  TGI: > 100000 nM
[16]; log10 conc -5.0, 10 µM
  Percent Growth: 41%
[16]; log10 conc -6.0, 1 µM
  Percent Growth: 43%
[16]; log10 conc -7.0, 0.1 µM
  Percent Growth: 31%
[17]; CAKI-1
  GI50: < 10 nM
[17]; CAKI-1, read-out: LC50
  CC50: > 100000 nM
[1]
  IC50: 600 nM
[18]; OVCAR-3
  GI50: < 10 nM
[18]; OVCAR-3, read-out: LC50
  CC50: > 100000 nM
[19]
  TGI: < 10 nM
[19]; log10 conc -4.0, 100 µM
  Percent Growth: -30%
[19]; log10 conc -5.0
  Percent Growth: -21%
[19]; log10 conc -7.0, 0.1 µM
  Percent Growth: -12%
[19]; log10 conc -8.0, 0.01 µM
  Percent Growth: -16% and -19%
[20]
  GI50: < 10 nM
[20]; read-out: LC50
  CC50: > 100000 nM
[20]; read-out: Percent Growth, log10 conc -4.0
  activity at 100 µM: 6%
[20]; read-out: Percent Growth, log10 conc -5.0
  activity at 10 µM: 26%
[20]; read-out: Percent Growth, log10 conc -6.0
  activity at 1 µM: 26%
[20]; read-out: Percent Growth, log10 conc -7.0
  activity at 0.1 µM: 22%
[21]; SK-OV-3
  GI50: < 10 nM
[21]; SK-OV-3, read-out: LC50
  CC50: > 100000 nM
[22]; HOP-62
  GI50: < 10 nM
[22]; HOP-62, read-out: LC50
  CC50: > 100000 nM
[22]; HOP-62, read-out: Percent Growth, log10 conc -4.0
  activity at 100 µM: 43%
[22]; HOP-62, read-out: Percent Growth, log10 conc -5.0
  activity at 10 µM: 41%
[22]; HOP-62, read-out: Percent Growth, log10 conc -6.0
  activity at 1 µM: 36%
[23]
  TGI: > 100000 nM
[23]; log10 conc -5.0, 10 µM
  Percent Growth: 26%
[23]; log10 conc -6.0, 1 µM
  Percent Growth: 40%
[23]; log10 conc -8.0, 0.01 µM
  Percent Growth: 29%
[24]
  GI50: < 10 nM
  TGI: > 100000 nM
[25]
  GI50: < 10 nM
  TGI: 12.9 nM
[25]; human, sf-539 cns cancer cells
  CC50: > 100000 nM
[25]; log10 conc -4.0, 100 µM
  Percent Growth: -8% and 1%
[25]; log10 conc -5.0, 10 µM
  Percent Growth: -13% and -12%
[25]; log10 conc -6.0, 1 µM
  Percent Growth: -8% and -16%
[25]; log10 conc -7.0, 0.1 µM
  Percent Growth: -13% and -11%
[25]; log10 conc -8.0
  Percent Growth: 2%
[25]; log10 conc -8.0, 0.01 µM
  Percent Growth: -8%
[26]; A498
  GI50: 10.4 nM
[26]; A498, read-out: LC50
  CC50: 50000 nM
[27]; HOP-92
  GI50: 17.6 nM
[27]; HOP-92, read-out: LC50
  CC50: > 100000 nM

## COc1cc2c(c(OC)c1OC)-c1ccc(OC)c(=O)cc1[C@@H](NC(C)=O)CC2 [Colchicine, reference compound]
[6]
  GI50: < 10 nM
  activity at 10 µM: 13%
  activity at 1 µM: 9%
  activity at 0.1 µM: 7%
  activity at 0.01 µM: 48%
[10]
  GI50: 35.6 nM
[10]; log10 conc -4.0, 100 µM
  Percent Growth: 1%
[10]; log10 conc -5.0
  Percent Growth: 0%
[10]; log10 conc -6.0, 1 µM
  Percent Growth: 1%
[10]; log10 conc -8.0
  Percent Growth: 98%
[11]; log10 conc -4.0, 100 µM
  Percent Growth: -39%
[11]; log10 conc -8.0
  Percent Growth: 99%

Reference: US5760092A, “Allocolchinones and uses thereof” (Brandeis University, priority 1996, dated 1998)
